Columns and labels:
[1] = tested on: new emigrant/transitional B cells; assay: Frequencies of autoreactive new emigrant/transitional B cells (central B cell tolerance) in humanized NSG mice engrafted with PTPN22 C/T or T/T HSCs; format: in vivo, NSG mice engrafted with human HSCs
Method: FIG. 7, comprising FIG. 7A through FIG. 7C depicts results of experiments showing inhibition of PTPN22 enzymatic activity resets central B cell tolerance. FIG. 7A depicts a schematic diagram depicting the PTPN22 inhibitor treatment strategy. NSG mice generated with CD34+ HSCs carrying PTPN22 T allele(s) were injected twice daily with 0.75 mg or 0.15 mg of PTPN22 inhibitor for one week. FIG. 7B depicts the frequencies of polyreactive new emigrant B cells from NSG mice carrying PTPN22 T allele(s) and treated with the PTPN22 inhibitor were determined and compared to those of non-treated NSG mice. […] For each B-cell fraction, the frequency of reactive (filled area) and non-reactive (open area) clones is summarized in pie charts with the total number of clones tested indicated in the center. In summarized reactivity panels on the right, each dot represents an untreated mouse and full and half-filled diamonds mice treated with either 0.75 or 0.15 mg of LTV-1 PTPN22 inhibitor, respectively. Averages are shown with a bar. FIG. 7C depicts the frequencies of HEp-2 reactive new emigrant B cells from NSG mice carrying PTPN22 T allele(s) and treated with the PTPN22 inhibitor were determined and compared to those of non-treated NSG mice. […] For each B-cell fraction, the frequency of reactive (filled area) and non-reactive (open area) clones is summarized in pie charts with the total number of clones tested indicated in the center. In summarized reactivity panels on the right, each dot represents an untreated mouse and full and half-filled diamonds mice treated with either 0.75 or 0.15 mg of LTV-1 PTPN22 inhibitor, respectively. Averages are shown with a bar.
Human CD34^+ cells were purified from fetal liver samples by density gradient centrifugation followed by positive immunomagnetic selection with anti-human CD34 microbeads (Miltenyi). Newborn NSG mice (within first 3 days of life) were sublethally irradiated (X-ray irradiation with X-RAD 320 irradiator at 180 cGy) and 100,000-150,000 CD34^+ cells in 20 μL of PBS were injected into the liver with a 22-gauge needle (Hamilton Company). Mice were used for experiments 10-12 weeks after transplantation. NSG mice treated with the PTPN22 inhibitor were injected twice daily i.p. with 0.75 mg or 0.15 mg of PTPN22 inhibitor for a week.
The pTRIP-Ubi-GFP lentiviral vector has been used for overexpression of PTPN22 variants and short hairpin RNA (shRNA) delivery. Vector constructions have been described previously (Cantaert et al., 2015, Immunity 43:884-95; Ruer-Laventie et al., 2015, Immun Inflamm Dis 3:265-79). The following sequence are used for human PTPN22 targeting: shRNA1 5′-[…]-3′ (SEQ ID NO: 1), shRNA2 5′-CTGTTGCCAACATCCTCTA-3′(SEQ ID NO: 3), or shRNA3 5′-AAGAATCCACCTGACTTCC-3′(SEQ ID NO: 2). Lentiviral particles were produced by transient transfection of 293T cells, as previously described (Schickel et al., 2012, EMBO Mol Med 4:1261-75). Viruses were then used to transduce CD34^+ HSCs in the presence of protamine sulfate (Sigma).
B cells were enriched from splenocytes using magnetic separation with CD19 microbeads (Miltenyi Biotech) and stained with CD19-Pacific Blue, CD10-PE-Cy7, CD21-APC and IgM-biotin (all from Biolegend) prior to purification. Single CD19^+CD10^+CD21^lowGFP^− or GFP^+ new emigrant B cells were sorted on a FACSAria (BD Biosciences) into 96-well PCR plates and immediately frozen on dry ice. […]

[2] = tested on: B cells isolated from humanized mice; assay: Calcium flux after BCR triggering in B cells isolated from humanized mice (flow cytometry); format: in vivo, humanized NSG mouse; conditions: anti-IgM F(ab′)2 25 μg/mL
Method: (§1) FIG. 40A depicts the phosphorylation of SHIP1, Lyn and ERK1/2 in total cell lysates of Ramos B cells treated or not with the PTPN22 inhibitor LTV-1 (5 μg/mL) for the indicated times. The cells were subjected to immunoblot analysis of P-LYN P-SHIP1, P-ERK1/2, and β-ACTIN. FIG. 40B depicts flow cytometry analysis of calcium flux of Ramos B cells treated or not with the PTPN22 inhibitor LTV-1 (5 μg/mL) for the indicated times followed by stimulation with anti-IgM F(ab′)2 at the indicated concentrations. FIG. 40C depicts flow cytometry analysis of calcium flux of splenocyte cells treated or not with LTV-1 (0.75 mg) twice daily for 7 days and stimulated with anti-IgM F(ab′)2 (25 μg/mL). FIG. 40D depicts flow cytometry analysis of calcium flux of splenocyte expressing PTPN22 shRNA and stimulated with anti-IgM F(ab′)2 (25 μg/mL).
(§2) However, downstream ERK phosphorylation was not affected by PTPN22 inhibition (FIG. 40A). Since PTPN22 inhibition enhanced TCR signaling in Jurkat cell line, it was investigated if PTPN22 blockade may also increase BCR signaling and calcium flux induced by BCR triggering was measured in RAMOS cells in the presence or not of LTV-1. Calcium flux was increased by PTPN22 inhibition, especially at lower concentration of BCR triggering agent (FIG. 40B). […]

RAMOS cells = assay: Calcium flux induced by BCR triggering in RAMOS cells (flow cytometry); format: cell-based, human; conditions: LTV-1 5 μg/mL, anti-IgM F(ab′)2, especially at lower concentration of BCR triggering agent
Method: as §1, §2

[3] = GFP+ shRNA+ PTPN22 C/T or T/T new emigrant/transitional B cells vs GFP- counterparts

Cc1ccccc1N1C(=O)/C(=C/c2ccc(OCc3cccc(C(=O)O)c3)cc2)C(=O)NC1=S [LTV-1]
frequencies of HEp-2 reactive new emigrant/transitional B cells ([1]; PTPN22 C/T or T/T engrafted NSG mice, 0.75 mg LTV-1 i.p. twice daily for a week): normalized | frequencies of polyreactive new emigrant/transitional B cells ([1]; PTPN22 C/T or T/T engrafted NSG mice, 0.75 mg LTV-1 i.p. twice daily for a week, vs non-treated): significantly reduced | anti-nuclear clone frequencies ([1]; PTPN22 C/T or T/T engrafted NSG mice, LTV-1 twice daily for a week): remained very low | calcium flux in B cells isolated from treated humanized mice ([2]; LTV-1 0.75 mg twice daily for 7 days, vs non-treated): enhanced | calcium flux induced by BCR triggering (RAMOS cells): increased

shRNA #1: shRNA targeting human PTPN22, 5′-CTAGTGCTCTTGGTGTATATT-3′, delivered by GFP-tagged lentivirus
production of HEp-2 reactive clones [1, 3]: significantly reduced | production of polyreactive clones [1, 3]: significantly reduced | calcium flux after BCR triggering in GFP+ shRNA-expressing B cells ([2]; GFP+ vs GFP- B cells from humanized NSG mouse): increased calcium flux

Source: patent publication US11311543B2, “Compositions and methods for inhibiting PTPN22” (YALE UNIVERSITY, priority 2016, dated 2022)
